Series [1] can be described thus: Solubility of dye in water. It counts as physicochemical.
Series [2] can be described thus: Physical form: liquid crystalline behaviour in aqueous solution. The note with it: for Dye (1) at a dye concentration of above about 25% by weight. It counts as physicochemical. The source says: This is anticipated to correspond to enhanced stability against precipitation and reduced dye degradation for concentrated solutions containing the compounds used in the present invention. The difference in liquid crystalline behaviour is surprising given the structural similarity of Dye (1) and Comparative Dye (1).

SMILES strings stand for the structures.

On to `O=C(O)c1cc(/N=N/c2ccc(Nc3nc(Nc4ccc(/N=N/c5cc(S(=O)(=O)O)c6cccc(S(=O)(=O)O)c6c5)cc4)nc(N(CCO)CCO)n3)cc2)cc(C(=O)O)c1` [Dye (1)], for which, in series [1], the solubility in water is 30 % of dye by weight. Further, the “solubility in water relative to Comparative Dye (1)” value in series [1] (ratio to Comparative Dye (1)) is “twice”. For the same molecule, the liquid crystalline behaviour entry in series [2] was “exhibited liquid crystalline characteristics”.

As for `O=C(O)c1cc(/N=N/c2ccc(Nc3nc(NCCO)nc(Nc4ccc(/N=N/c5cc(S(=O)(=O)O)c6cccc(S(=O)(=O)O)c6c5)cc4)n3)cc2)cc(C(=O)O)c1` [Comparative Dye (1), reference compound], the solubility in water in series [1] was 15 % of dye by weight. For the same molecule, the liquid crystalline behaviour entry in series [2] is “no liquid crystalline behaviour”.
